# Source: EP1277738B1, “CONDENSED HETEROARYL DERIVATIVES” (Astellas Pharma Inc., priority 2000, dated 2001)
# Biological target: PI3K (p110α subtype) (Bos taurus, UniProt P32871)
# Assay: Inhibition of PI3K (p110α subtype)
# Type: biochemical
# Conditions: bovine p110α from baculovirus expression system; PI substrate, [γ-32P] ATP, 37°C for 15 minutes
# Method: Test Example 1 Inhibition of PI3K (p110α subtype)
# Inhibition was determined using enzyme (bovine p110α) prepared in the baculovirus expression system. Bovine p110 was prepared according to a modification from the method by I. Hiles et al., Cell, 70, 419 (1992). Each compound to be assayed was dissolved in DMSO and the obtained 10 mM DMSO solution was serially diluted with DMSO.
# The compound (0.5µl) to be assayed and enzyme were mixed in 25µl of buffer solution (40 mM Tris-HCl (pH 7.4), 200 mM NaCl, 2 mM dithiothreitol, 5 mM MgCl2). Then, 25µl of 5 mM Tris-HCl (pH 7.4) buffered solution supplemented with 10µg PI (Sigma), 2µ Ci [γ-^32P] ATP (Amersham Pharmacia) and 80µM nonradiolabeled ATP (Sigma) was added to the mixture to initiate the reaction. After reacting at 37°C for 15 minutes, 200µl of 1M HCl and 400µl of CHCl3 / MeOH (1 : 1) were added to the reaction mixture. The resulting mixture was stirred and then centrifuged. After the organic layer was again extracted twice with 150µl of MeOH / 1M HCl (1 : 1). The radioactivity was measured using Cerenkov light.
# PI3K (p110α subtype), sequence (P32871 whole entry): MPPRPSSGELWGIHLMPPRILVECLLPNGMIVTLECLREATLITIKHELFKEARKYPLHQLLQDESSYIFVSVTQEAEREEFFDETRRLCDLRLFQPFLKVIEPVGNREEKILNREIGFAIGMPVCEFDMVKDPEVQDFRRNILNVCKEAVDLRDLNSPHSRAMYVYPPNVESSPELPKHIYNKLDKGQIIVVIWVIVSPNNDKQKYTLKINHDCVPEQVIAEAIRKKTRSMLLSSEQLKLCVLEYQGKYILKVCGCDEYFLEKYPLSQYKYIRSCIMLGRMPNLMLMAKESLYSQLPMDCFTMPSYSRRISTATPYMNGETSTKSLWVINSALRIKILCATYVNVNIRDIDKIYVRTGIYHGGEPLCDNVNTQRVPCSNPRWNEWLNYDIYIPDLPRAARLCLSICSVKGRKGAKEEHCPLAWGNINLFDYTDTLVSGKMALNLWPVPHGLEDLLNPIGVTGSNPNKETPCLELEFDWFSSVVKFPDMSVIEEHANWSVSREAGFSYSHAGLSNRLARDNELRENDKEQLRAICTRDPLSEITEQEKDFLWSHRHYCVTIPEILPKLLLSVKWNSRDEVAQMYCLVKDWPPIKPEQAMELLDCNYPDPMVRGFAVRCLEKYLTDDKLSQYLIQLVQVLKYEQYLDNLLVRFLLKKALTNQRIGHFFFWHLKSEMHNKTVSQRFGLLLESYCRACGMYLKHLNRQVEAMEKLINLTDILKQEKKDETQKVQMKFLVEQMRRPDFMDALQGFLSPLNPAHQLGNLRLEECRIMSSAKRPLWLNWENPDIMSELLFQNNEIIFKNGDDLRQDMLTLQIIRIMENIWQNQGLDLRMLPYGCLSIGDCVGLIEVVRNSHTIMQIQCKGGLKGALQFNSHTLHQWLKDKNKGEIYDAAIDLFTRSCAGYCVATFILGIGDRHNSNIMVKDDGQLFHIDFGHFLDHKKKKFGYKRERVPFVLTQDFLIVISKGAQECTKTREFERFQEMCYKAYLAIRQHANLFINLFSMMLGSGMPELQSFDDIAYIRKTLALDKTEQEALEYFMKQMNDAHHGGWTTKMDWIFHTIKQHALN
row,SMILES,IC50 [µM]
1,O=C(Nc1cccc(-c2nc(N3CCOCC3)c3oc4ncccc4c3n2)c1)c1ccccn1 [Co 10],< 1
2,"Nc1ccc(C(=O)Nc2cccc(-c3nc(N4CCOCC4)c4oc5ncccc5c4n3)c2)cn1 [Co 17, 6-amino-3'-.(4-morpholinopyrido[3',2':4,5]furo[3,2-d]pyrimidin-2-yl)nicotinanilide]",< 1
3,CC(=O)Nc1cccc(-c2nc(N3CCOCC3)c3oc4ncccc4c3n2)c1 [Co 24],< 1

# Test system: HCT116 cells
# Assay: Colon cancer cell growth inhibition (Alamar Blue)
# Type: cell-based
# Conditions: HCT116 colon cancer cell line, incubation over 72 hours; result in words
# Method: Test Example 2 Colon cancer cell growth inhibition
# HCT116 cells from a colon cancer cell line were cultured in McCoy's 5A medium (GIBCO) supplemented with 10% fetal bovine serum. HCT116 cells were inoculated on a 96 well plate (5000 cells/well) followed by overnight incubation. The test compound diluted with the medium was added to the medium in a final concentration of […] (final DMSO concentration, 1%). After incubation over 72 hours, Alamar Blue reagent was added to the medium. Two hours after the addition, a ratio of fluorescent intensity at an excitation wavelength of 530 nm to that at an emission wavelength of 590 nm was measured to determine the IC50. Co 14, Co 24, Co 25, Co 31, Co 46 and Co 47 of the present invention exerted an excellent cancer cell growth inhibition activity.
row,SMILES,cancer cell growth inhibition activity
1,CC(=O)Nc1cccc(-c2nc(N3CCOCC3)c3oc4ncccc4c3n2)c1 [Co 24],excellent

# Test system: A375 cells
# Assay: Melanoma cell growth inhibition (Alamar Blue)
# Type: cell-based
# Conditions: Homo sapiens, A-375, 46 h
# Method: A375 cells from a melanoma cell line were cultured in DMEM medium (GIBCO) supplemented with 10% fetal bovine serum. A375 cells at 10,000 cells/100µl were added to a 96 well plate which contained 1µl/well of the test compounds (final concentration of 0.001 - 30µM). After incubation for over 46 hours, Alamar Blue reagent was added to the medium (10µl/well).
row,SMILES,IC50 [µM]
1,"Oc1cccc(-c2nc(N3CCOCC3)c3oc4ncccc4c3n2)c1 [Co 50, 3-(4-morpholinopyrido[3',2':4,5]furo[3,2-d]pyrimidin-2-yl)phenol]",0.33 to 4.26

# Same assay, conditions: Homo sapiens, A-375; A375 melanoma cell line, incubation for over 46 hours, 0.001 - 30µM; range is stated for the group of ten compounds; read-out: IC50
row,SMILES,IC50 [µM]
1,"COc1ccc2nc(-c3cccc(O)c3)nc(N3CCOCC3)c2c1 [Co 186, 3-(6-methoxy-4-morpholinoquinazolin-2-yl)phenol]",0.33 to 4.26
2,"Oc1cccc(-c2nc(N3CCOCC3)c3sccc3n2)c1 [Co 190, 3-(4-morpholinothieno[3,2-d]pyrimidin-2-yl)phenol]",0.33 to 4.26
3,"Oc1cccc(-c2nc(N3CCOCC3)c3nccnc3n2)c1 [Co 191, 3-(4-morpholinopteridin-2-yl)phenol]",0.33 to 4.26
4,"c1cc(OCCN2CCNCC2)cc(-c2nc(N3CCOCC3)c3oc4ncccc4c3n2)c1 [Co 69, 4-morpholino-2-[3-(2-piperazin-1-ylethoxy)phenyl]pyrido[3',2':4,5]furo[3,2-d]pyrimidine]",0.33 to 4.26
5,"Oc1cccc(-c2nc(N3CCOCC3)c3ncccc3n2)c1 [Co 172, 3-(4-morpholinopyrido[3,2-d]pyrimidin-2-yl)phenol]",0.33 to 4.26
6,"Nc1ccc(-c2nc(N3CCOCC3)c3oc4ncccc4c3n2)cc1 [Co 33, 4-(4-morpholinopyrido[3',2':4,5]furo[3,2-d]pyrimidin-2-yl)aniline]",0.33 to 4.26
7,"Oc1cccc(-c2nc(N3CCOCC3)c3ccncc3n2)c1 [Co 174, 3-(4-morpholinopyrido[3,4-d]pyrimidin-2-yl)phenol]",0.33 to 4.26
8,"Oc1cccc(-c2nc(N3CCOCC3)c3cnccc3n2)c1 [Co 164, 3-(4-morpholinopyrido[4,3-d]pyrimidin-2-yl)phenol]",0.33 to 4.26
